Where two headings read alike, the source gives them in different places. Peptide text beside a SMILES is read from it.
Tests used:
[1] = tested on: 11 clinically relevant bacterial pathogens; format: cell-based; conditions: Supplementary Dataset 2; against the 11 pathogens tested
Source text: The following Gram-negative bacteria were used in our study: A. baumannii ATCC 19606, E. coli ATCC 11775, E. coli AIC221 (E. coli MG1655 phnE_2::FRT), E. coli AIC222 (E. coli MG1655 pmrA53 phnE_2::FRT (colistin resistant)), K. pneumoniae ATCC 13883, P. aeruginosa PAO1 and P. aeruginosa PA14. The following Gram-positive bacteria were also used in our study: S. aureus ATCC 12600, S. aureus ATCC BAA-1556 (methicillin-resistant strain), E. faecalis ATCC 700802 (vancomycin-resistant strain) and E. faecium ATCC 700221 (vancomycin-resistant strain). Bacteria were grown from frozen stocks and plated on Luria–Bertani (LB) or Pseudomonas isolation agar plates (P. aeruginosa strains) and incubated overnight at 37 °C. After the incubation period, a single colony was transferred to 5 ml of LB medium, and cultures were incubated overnight (16 h) at 37 °C. The following day, an inoculum was prepared by diluting the overnight cultures 1:100 in 5 ml of the respective media and incubating them at 37 °C until bacteria reached logarithmic phase (OD600 = 0.3–0.5).
The in vitro antimicrobial activity of the peptides was assessed by using the broth microdilution assay. […] Aqueous solutions of the peptides were added to the plate at concentrations ranging from 1 to 64 μmol l^−1. […] The optical density of the plates was measured at 600 nm using a spectrophotometer. All assays were done as three biological replicates.

HEK293T cells = tested on: HEK293T cells
Method: HEK293T cells were obtained from the American Type Culture Collection (CRL-3216). The cells were cultured in high-glucose Dulbecco’s modified Eagle’s medium supplemented with 1% penicillin and streptomycin (antibiotics) and 10% fetal bovine serum and grown at 37 °C in a humidified atmosphere containing 5% CO2.
One day before the experiment, an aliquot of 100 μl of the cells at 50,000 cells per ml was seeded into each well of the cell-treated 96-well plates used in the experiment (that is, 5,000 cells per well). […] After the incubation period, we performed the 3-(4,5-dimethylthiazol-2-yl)-2,5-diphenyltetrazolium bromide tetrazolium reduction assay (MTT assay)[53]. The MTT reagent was dissolved at 0.5 mg ml^−1 in medium without phenol red and was used to replace cell culture supernatants containing the peptides (100 μl per well), and the samples were incubated for 4 h at 37 °C in a humidified atmosphere containing 5% CO2 yielding the insoluble formazan salt. The resulting salts were then resuspended in hydrochloric acid (0.04 mol l^−1) in anhydrous isopropanol and quantified by spectrophotometric measurements of absorbance at 570 nm. All assays were done as three biological replicates.
Unless otherwise stated, all assays were performed in three independent biological replicates as indicated in each figure legend and Methods sections. The cytotoxic activities values were estimated using non-linear regression based on the range of concentrations screened and were shown as the values that cause lysis of 50% of the cells in the experiment. Two technical replicates were performed in the cytotoxicity assays within each of the three biological replicates.

A. baumannii ATCC 19606 [2] = assay: Neutropenic thigh infection mouse model; format: in vivo, CD-1 mice; conditions: neutropenic CD-1 mice
Method: Six-week-old female CD-1 mice from Charles River (stock number 18679700-022) were rendered neutropenic by two doses of cyclophosphamide (150 mg kg^−1) applied intraperitoneally with an interval of 72 h. One day after the last dose of cyclophosphamide, the mice were injected intramuscularly in their right thigh with a bacterial load of 10^6 c.f.u. ml^−1 of A. baumannii ATCC 19606 cells. The bacteria had been grown in LB broth, washed twice with PBS (pH 7.4), and resuspended to the desired concentration. Two hours after bacterial injection, peptides resuspended in water were administered intraperitoneally, and the untreated mice were inoculated with the same volume of deionized water. Before each injection, mice were anaesthetized with isoflurane and monitored for respiratory rate and pedal reflexes. Next, we monitored the establishment of the infection and euthanized the mice. The infected area was excised 2 days and 4 days post infection, homogenized using a bead beater for 20 min (25 Hz), and then serially diluted tenfold for quantification of colony-forming units in MacConkey agar plates. The experiments were performed with six mice per group. All experiments were performed blindly, and no animal subjects were excluded from the analysis. The thigh infection mouse model was approved by the University Laboratory Animal Resources from the University of Pennsylvania (protocol 807055). Statistical significance was determined using one-way ANOVA followed by Dunnett’s test in log10-transformed data to mitigate the effect of outliers; P values are presented for each group, with all groups being compared to the untreated control group.

A. baumannii ATCC 19606 [3] = assay: Skin abscess infection mouse model; format: in vivo, CD-1 mice; conditions: CD-1 mice
Method: A. baumannii ATCC 19606 cells were grown in LB medium to an OD600 = 0.5. Cells were washed twice with sterile phosphate-buffered saline (PBS) (pH 7.4, 13,000 r.p.m. for 2 min) and resuspended to a final concentration of 10^6 (A. baumannii cells) colony-forming units per millilitre (c.f.u. ml^−1). Six-week-old female CD-1 mice from Charles River (stock number 18679700-022) were anaesthetized with isoflurane, and their backs were sterilized and shaved. A superficial linear skin abrasion was made with a needle to damage the stratum corneum and upper layer of the epidermis. An aliquot of 20 μl containing the bacterial load resuspended in PBS was inoculated over the scratched area. Two hours after the infection, peptides diluted in water at their MIC value were administered to the infected area, and the untreated mice were inoculated with the same volume of deionized water. Mice were euthanized, and the area of scarified skin was excised 2 days and 4 days post infection, homogenized using a bead beater for 20 min (25 Hz) and then serially diluted tenfold for quantification of colony-forming units. This quantitative method was used as it has been established to accurately reflect the number of bacteria present in a given infected area. MacConkey agar plates were used as A. baumannii colonies appear purple in this medium and can easily be distinguished from other strains. The experiments were performed with six mice per group. All experiments were performed blindly, and no animal subjects were excluded from the analysis. The skin abscess infection mouse model was approved by the University Laboratory Animal Resources from the University of Pennsylvania (protocol 806763). Statistical significance was determined using one-way analysis of variance (ANOVA) followed by Dunnett’s test in log10-transformed data to mitigate the effect of outliers; P values are presented for each group, with all groups being compared to the untreated control group.

[4] = A. baumannii ATCC 19606, day 2, replicate 1
[5] = A. baumannii ATCC 19606, day 2, replicate 2
[6] = A. baumannii ATCC 19606, day 2, replicate 3
[7] = A. baumannii ATCC 19606, day 2, replicate 4
[8] = A. baumannii ATCC 19606, day 2, replicate 5
[9] = A. baumannii ATCC 19606, day 2, replicate 6
[10] = A. baumannii ATCC 19606, day 4, replicate 1
[11] = A. baumannii ATCC 19606, day 4, replicate 2
[12] = A. baumannii ATCC 19606, day 4, replicate 3
[13] = A. baumannii ATCC 19606, day 4, replicate 4
[14] = A. baumannii ATCC 19606, day 4, replicate 5
[15] = A. baumannii ATCC 19606, day 4, replicate 6

## CC[C@H](C)[C@H](NC(=O)[C@H](CCCCN)NC(=O)[C@H](CC(C)C)NC(=O)[C@H](Cc1c[nH]cn1)NC(=O)[C@@H](N)CC(C)C)C(=O)N[C@@H](CC(C)C)C(=O)N[C@@H](CCCCN)C(=O)N[C@H](C(=O)N[C@H](C(=O)N[C@@H](CCCNC(=N)N)C(=O)N[C@@H](CC(C)C)C(=O)N[C@@H](CC(C)C)C(=O)O)[C@@H](C)CC)[C@@H](C)CC [Elephasin-1] (H-LHLKILKIIRLL-OH; N-terminus and C-terminus assumed)
[1]
  Active or Inactive: Active

## CC[C@H](C)[C@H](NC(=O)[C@H](Cc1c[nH]cn1)NC(=O)[C@@H](N)CC(C)C)C(=O)NCC(=O)N[C@@H](CC(C)C)C(=O)N[C@H](C(=O)N[C@@H](CCCCN)C(=O)N[C@H](C(=O)N[C@@H](Cc1ccc(O)cc1)C(=O)N[C@@H](CC(C)C)C(=O)NCC(=O)N[C@@H](CO)C(=O)N[C@@H](Cc1ccccc1)C(=O)N[C@@H](C)C(=O)N[C@@H](CC(C)C)C(=O)O)[C@@H](C)O)[C@@H](C)CC [Eudyptin-1] (H-LHIGLIKTYLGSFAL-OH; N-terminus and C-terminus assumed)
HEK293T cells; 24 h
  CC50: > 128 µM
  TI (therapeutic index): > 2
[1]
  Active or Inactive: Active

## polymyxin B [reference compound]
A. baumannii ATCC 19606 [2]; [4]
  bacterial count, thigh infection (Panel 6d): 20000
A. baumannii ATCC 19606 [2]; [5]
  bacterial count, thigh infection (Panel 6d): 80000
A. baumannii ATCC 19606 [2]; [6]
  bacterial count, thigh infection (Panel 6d): 200000
A. baumannii ATCC 19606 [2]; [7]
  bacterial count, thigh infection (Panel 6d): 40000
A. baumannii ATCC 19606 [2]; [8]
  bacterial count, thigh infection (Panel 6d): 40000
A. baumannii ATCC 19606 [2]; [9]
  bacterial count, thigh infection (Panel 6d): 200000
A. baumannii ATCC 19606 [2]; [10]
  bacterial count, thigh infection (Panel 6d): 200000
A. baumannii ATCC 19606 [2]; [11]
  bacterial count, thigh infection (Panel 6d): 400000
A. baumannii ATCC 19606 [2]; [12]
  bacterial count, thigh infection (Panel 6d): 1200000
A. baumannii ATCC 19606 [2]; [13]
  bacterial count, thigh infection (Panel 6d): 600000
A. baumannii ATCC 19606 [2]; [14]
  bacterial count, thigh infection (Panel 6d): 600000
A. baumannii ATCC 19606 [2]; [15]
  bacterial count, thigh infection (Panel 6d): 200000
A. baumannii ATCC 19606 [3]; [4]
  bacterial count, skin abscess (Panel 6b): 4000
A. baumannii ATCC 19606 [3]; [5]
  bacterial count, skin abscess (Panel 6b): 2000
A. baumannii ATCC 19606 [3]; [6]
  bacterial count, skin abscess (Panel 6b): 8000
A. baumannii ATCC 19606 [3]; [7]
  bacterial count, skin abscess (Panel 6b): 6000
A. baumannii ATCC 19606 [3]; [8]
  bacterial count, skin abscess (Panel 6b): 1400
A. baumannii ATCC 19606 [3]; [9]
  bacterial count, skin abscess (Panel 6b): 400
A. baumannii ATCC 19606 [3]; [10]
  bacterial count, skin abscess (Panel 6b): 8000
A. baumannii ATCC 19606 [3]; [11]
  bacterial count, skin abscess (Panel 6b): 10000
A. baumannii ATCC 19606 [3]; [12]
  bacterial count, skin abscess (Panel 6b): 600
A. baumannii ATCC 19606 [3]; [13]
  bacterial count, skin abscess (Panel 6b): 600
A. baumannii ATCC 19606 [3]; [14]
  bacterial count, skin abscess (Panel 6b): 200
A. baumannii ATCC 19606 [3]; [15]
  bacterial count, skin abscess (Panel 6b): 400

## CC[C@H](C)[C@H](NC(=O)[C@H](Cc1ccccc1)NC(=O)[C@@H](N)CC(C)C)C(=O)NCC(=O)N[C@@H](CC(C)C)C(=O)N[C@H](C(=O)N[C@@H](CC(N)=O)C(=O)N[C@@H](CC(C)C)C(=O)N[C@@H](CC(C)C)C(=O)NCC(=O)N[C@@H](CC(C)C)C(=O)N[C@@H](CC(C)C)C(=O)O)[C@@H](C)O [Mammuthusin-4] (H-LFIGLTNLLGLL-OH; N-terminus and C-terminus assumed)
HEK293T cells; 24 h
  CC50: > 128 µM
[1]
  Active or Inactive: Active

## CC[C@H](C)[C@H](NC(=O)[C@H](CCCCN)NC(=O)[C@H](CC(C)C)NC(=O)[C@H](CO)NC(=O)[C@@H](NC(=O)[C@H](CO)NC(=O)[C@H](CC(C)C)NC(=O)[C@H](CCCCN)NC(=O)[C@@H](NC(=O)[C@@H](NC(=O)[C@H](CC(N)=O)NC(=O)[C@@H](NC(=O)[C@@H](NC(=O)[C@@H](NC(=O)[C@H](Cc1c[nH]c2ccccc12)NC(=O)[C@@H](N)Cc1c[nH]cn1)[C@@H](C)CC)[C@@H](C)O)[C@@H](C)CC)[C@@H](C)O)[C@@H](C)CC)[C@@H](C)CC)C(=O)O [Lophiosin-1] (H-HWITINTIKLSISLKI-OH; N-terminus and C-terminus assumed)
HEK293T cells
  CC50: 68.02 µM
[1]
  Active or Inactive: Active

## CC[C@H](C)[C@H](N)C(=O)N[C@H](C(=O)NCC(=O)N[C@@H](CC(N)=O)C(=O)N[C@H](C(=O)N[C@@H](Cc1ccccc1)C(=O)NCC(=O)N[C@@H](Cc1ccccc1)C(=O)N[C@@H](CCCCN)C(=O)N[C@@H](C)C(=O)N[C@@H](CC(C)C)C(=O)N[C@@H](CCCNC(=N)N)C(=O)N[C@@H](C)C(=O)N[C@@H](CC(C)C)C(=O)N[C@@H](CCCNC(=N)N)C(=O)N[C@@H](CC(C)C)C(=O)O)C(C)C)C(C)C [Hesperelin-4] (H-IVGNVFGFKALRALRL-OH; N-terminus and C-terminus assumed)
[1]
  Active or Inactive: Active
